The text below walks through data of US7560436B2, “Methods of treating gastrointestinal inflammation” (The Regents of the University of California, priority 2005, dated 2009).

Series [1] deals with bone marrow-derived myeloid dendritic cells (MDC) from RAG−/− mice. Briefly: DNA-PK inhibitor on CpG-ODN-induced cytokine production in MDC. The class given is cell-based, mouse. The following applies: various concentrations of NU7026, with or without CpG-ODN. The protocol:
Since deletion of the kinase domain of DNA-PKcs is responsible for the SCID phenotype, the role of DNA-PK in TLR9-mediated type-I IFN induction was investigated. To do so, bone marrow-derived myeloid dendritic cells (MDC) from RAG^−/− mice were incubated with various concentrations of NU7026, a DNA-PK inhibitor (Calbiochem, San Diego, Calif.), with or without CpG-ODN. […] In contrast, the activation of NF-κB, MAPK, IRF-3 and IRF-7 were similar in these cells (FIG. 2B), indicating a specific signaling blockade downstream to TLR9 in SCID but not in RAG^−/− BM-MDC.

The subject of series [2] is DSS-induced colitis. Briefly: DSS-induced colitis in mice (disease activity index, colonic MPO activity, histological score, mortality). Type of series: in vivo, mouse. Particulars: for DAI (disease activity index) / HS (histological score) / MPO (U/g): 1.5% DSS. The text has this:
In a previous study the concentration of DSS was identified that was required to induce a similar severity of colitis in the different mouse strains used in this study (Rachmilewitz et al. (2004) Gastroenterology 126:520-528). Mice on the B6 background were given 1.5% (w/v) DSS, mice on the 129/SvEv background were given 4% DSS and mice on the Balb/c background were given 3.5% DSS dissolved in sterile, distilled water ad libitum for 7 days (Rachmilewitz et al. (2004) supra). […] The disease activity index (DAI; the combined score of weight loss and bleeding) was determined as described (Rachmilewitz et al. (2002) Gastroenterology 122:1428-144110; and Rachmilewitz et al. (2004) supra). Briefly, scores are defined as follows: Loss in body weight: 0=no loss; 1=5% to 10%; 2=10% to 15%; 3=15% to 20%; 4=over 20%. Hemoccult: 0=no blood; 2=positive; 4=gross blood.
The colon tissues were longitudinally opened and a 50 mg portion was homogenized in hexadecyltrimethyl-ammonium bromide (0.5%) in 50 mmol/L phosphate buffer, pH6.0. The homogenate was sonicated for 10 seconds, freeze-thawed 3 times, and centrifuged for 15 minutes. An aliquot of the supernatant was taken for determination of enzyme activity as described (Rachmilewitz et al. (2002) supra; and Rachmilewitz et al. (2004) supra).
After 7 days of DSS administration, mice were killed and the entire colon was excised, longitudinally opened, rolled onto a wooden stick, fixed with Bouin's Solution (Sigma, St. Louis, Mo.), and embedded in paraffin. Tissue sections (5 μm) were prepared, deparaffinized, and stained with hematoxylin and eosin. Histological scoring was performed in a blinded fashion. Colonic epithelial damage was scored as follows: 0=normal; 1=hyper-proliferation, irregular crypts, and goblet cell loss; 2=mild to moderate crypt loss (10-50%); 3=severe crypt loss (50-90%); 4=complete crypt loss, surface epithelium intact; 5=small to medium sized ulcer (<10 crypt widths); 6=large ulcer (≧10 crypt widths). Infiltration with inflammatory cells was scored separately for mucosa (0=normal, 1=mild, 2=modest, 3=severe), submucosa (0=normal, 1=mild to modest, 2=severe), and muscle/serosa (0=normal, 1=moderate to severe). Scores for epithelial damage and inflammatory cell infiltration were added, resulting in a total scoring range of 0-12.

Where [3] appears, read: RAG1−/− mice (B6), ODN 10 μg/animal s.c. once 2 h prior, day 7, mean±SEM.
The mark [4] stands for this setting: SCID mice (B6), ODN 10 μg/animal s.c. once 2 h prior, day 7, mean±SEM.
The mark [5] stands for this setting: Table 6: SCID mice (B6), 1000 U recombinant mIFN-β i.p. prior to and on days 2, 4, 6, day 7, mean±SEM.

As for `O=c1cc(N2CCOCC2)oc2c1ccc1ccccc12` [NU7026], in series [1], the “IFN-α/β production induced by CpG-ODN” value is reported as “selectively inhibited IFN-α/β” and the “IL-12 (p40) production induced by CpG-ODN” value is on record as “without affecting IL-12 (p40) production”.
Turning to “CpG-ODN-2: phosphodiester and phosphothioate-modified class A CpG-ODN, 5′-Ggtgcatcgatgca GGGGGg-3′; SEQ ID NO:05 (GGTGCATCGATGCAGGGGGG; DNA, linkages s1 o13 s5 (s phosphorothioate, o phosphodiester), methylation of C not given here)”, in series [2] (setting [3]), the “DAI (disease activity index)” value is 1.9 ± 0.7^A, the “HS (histological score)” value was 5.0 ± 0.8^A and the “MPO (U/g)” value is reported as 0.9 ± 0.2^A U/g. In addition, in series [2] (setting [4]), the “DAI (disease activity index)” value is given as 6.5 ± 0.6, the “HS (histological score)” value is recorded as 9.8 ± 0.3 and the “MPO (U/g)” value is given as 1.3 ± 0.1 U/g.
As for “IFN-β: recombinant murine IFN-β from Chemicon International”, the “disease activity and histological scores (in words)” value in series [2] (DSS-treated SCID mice, recombinant mIFN-β) was “decreased the disease activity and the histological scores”. For the same compound, in series [2] (setting [5]), the “DAI (disease activity index)” value is 4.6 ± 0.9^A, the “HS (histological score)” value is given as 6.8 ± 1.2^A and the “MPO (U/g)” value was 1.2 ± 0.1 U/g.
